Patent US11261177B2, “Benzoxazinone derivatives useful as herbicides” (REDAG CROP PROTECTION LTD, priority 2017, dated 2022)

What was measured:
Type in all cases: in vivo
[1] = system: Stellaria media—Chickweed; assay: Post-emergence herbicidal assay, 96 cell trays, glasshouse; conditions: 168 h, assessed 7 days after treatment, read-out: % control of plant growth; for pest or weed control at 200 g/ha: 0.2 kg/ha; for pest or weed control at 1000 g/ha: 1 kg/ha; for pest or weed control at 5000 g/ha: 5 kg/ha
Protocol: (§1) The compounds were screened at three concentrations (0.2, 1 and 5 kg/ha) against 2 weed species (Stellaria media—Chickweed and Lolium perenne). The seeds were sown in the cells of 96 cell trays (4-6 seeds per cell). For the pre-emergence assay, 75 μL of a suspension of the test compound, at the above doses, was added on top of the soil 1 day after sowing. For the post-emergence assay, the seedlings were sprayed with 200 μL of a suspension of the test compound two weeks after sowing. The formulation used is 25% acetone and 75% water/0.01% Tween 20. Each treatment was replicated three times. The plants were kept in a glasshouse (uncontrolled conditions) and assessed 7 days after treatment. A small number of compounds were tested in a first trial. A larger number of compounds were tested in a second trial. The assessment was based on the % control of plant growth in each cell.

Lolium perenne [2] = assay: as above; conditions: 168 h, Lollium, assessed 7 days after treatment, read-out: % control of plant growth; for pest or weed control at 200 g/ha: 0.2 kg/ha; for pest or weed control at 1000 g/ha: 1 kg/ha; for pest or weed control at 5000 g/ha: 5 kg/ha
Protocol: as §1

[3] = system: 2 weed species (Stellaria media—Chickweed and Lolium perenne); assay: Herbicidal activity screen, summary in words over both weed species; conditions: pre- and post-emergence, 0.2, 1 and 5 kg/ha
Protocol: as §1

[4] = system: Stellaria media—Chickweed; assay: Pre-emergence herbicidal assay, 96 cell trays, glasshouse; conditions: 168 h, assessed 7 days after treatment, read-out: % control of plant growth; for pest or weed control at 200 g/ha: 0.2 kg/ha; for pest or weed control at 1000 g/ha: 1 kg/ha; for pest or weed control at 5000 g/ha: 5 kg/ha
Protocol: as §1

Lolium perenne [5] = assay: as above; conditions: 168 h, Lollium, assessed 7 days after treatment, read-out: % control of plant growth; for pest or weed control at 200 g/ha: 0.2 kg/ha; for pest or weed control at 1000 g/ha: 1 kg/ha; for pest or weed control at 5000 g/ha: 5 kg/ha
Protocol: as §1

Compound	pest or weed control at 200 g/ha ([1]; second trial (Table 2))	pest or weed control at 1000 g/ha ([1]; second trial (Table 2))	pest or weed control at 5000 g/ha ([1]; second trial (Table 2))	pest or weed control at 200 g/ha (Lolium perenne [2]; second trial (Table 2))	pest or weed control at 1000 g/ha (Lolium perenne [2]; second trial (Table 2))	pest or weed control at 5000 g/ha (Lolium perenne [2]; second trial (Table 2))	herbicidal activity [3]	pest or weed control at 200 g/ha ([4]; second trial (Table 2))	pest or weed control at 1000 g/ha ([4]; second trial (Table 2))	pest or weed control at 5000 g/ha ([4]; second trial (Table 2))	pest or weed control at 200 g/ha (Lolium perenne [5]; second trial (Table 2))	pest or weed control at 1000 g/ha (Lolium perenne [5]; second trial (Table 2))	pest or weed control at 5000 g/ha (Lolium perenne [5]; second trial (Table 2))	further results
C#CCN1C(=O)C2(CC2)Oc2cc(F)c(-n3ncc(C(F)(F)F)c(C)c3=O)cc21 [Example 4, 7-Fluoro-6-(5-methyl-6-oxo-4-(trifluoromethyl)pyridazin-1(6H)-yl)-4-(prop-2-yn-1-yl)spiro[benzo[b][1,4]oxazine-2,1′-cyclopropan]-3(4H)-one]	80 to 100%	80 to 100%	80 to 100%	80 to 100%	80 to 100%	80 to 100%	excellent herbicidal activity against all tested species	80 to 100%	80 to 100%	80 to 100%	80 to 100%	80 to 100%	80 to 100%	pest or weed control at 200 g/ha ([1]; first trial (Table 1)): 20 to 80%; pest or weed control at 1000 g/ha ([1]; first trial (Table 1)): 20 to 80%; pest or weed control at 5000 g/ha ([1]; first trial (Table 1)): 20 to 80%; pest or weed control at 200 g/ha (Lolium perenne [2]; first trial (Table 1)): 80 to 100%; pest or weed control at 1000 g/ha (Lolium perenne [2]; first trial (Table 1)): 80 to 100%; pest or weed control at 5000 g/ha (Lolium perenne [2]; first trial (Table 1)): 80 to 100%; pest or weed control at 200 g/ha ([4]; first trial (Table 1)): 80 to 100%; pest or weed control at 1000 g/ha ([4]; first trial (Table 1)): 80 to 100%; pest or weed control at 5000 g/ha ([4]; first trial (Table 1)): 80 to 100%; pest or weed control at 200 g/ha (Lolium perenne [5]; first trial (Table 1)): 80 to 100%; pest or weed control at 1000 g/ha (Lolium perenne [5]; first trial (Table 1)): 80 to 100%; pest or weed control at 5000 g/ha (Lolium perenne [5]; first trial (Table 1)): 80 to 100%
C#CCN1C(=O)C2(CC2)Oc2cc(F)c(N3C(=O)c4ccc(C)cc4C3=O)cc21 [Example 8]	80 to 100%	80 to 100%	80 to 100%	20 to 80%	80 to 100%	80 to 100%	excellent herbicidal activity against all tested species	80 to 100%	80 to 100%	80 to 100%	20 to 80%	80 to 100%	80 to 100%	
COC(=O)C(C)N1C(=O)C2(CC2)Oc2cc(F)c(N3C(=O)C4=C(CCCC4)C3=O)cc21 (stereo not drawn) [Example 15]	80 to 100%	80 to 100%	80 to 100%	20 to 80%	80 to 100%	80 to 100%	excellent herbicidal activity against all tested species	80 to 100%	80 to 100%	80 to 100%	20 to 80%	80 to 100%	80 to 100%	
CCOC(=O)C(C)N1C(=O)C2(CC2)Oc2cc(F)c(N3C(=O)C4=C(CCCC4)C3=O)cc21 (stereo not drawn) [Example 18]	80 to 100%	80 to 100%	80 to 100%	20 to 80%	80 to 100%	80 to 100%	excellent herbicidal activity against all tested species	80 to 100%	80 to 100%	80 to 100%	80 to 100%	80 to 100%	80 to 100%	
CCOC(=O)C(C)N1C(=O)C2(CC2)Oc2cc(F)c(N3C(=O)c4ccc(F)cc4C3=O)cc21 (stereo not drawn) [Example 19]	80 to 100%	80 to 100%	80 to 100%	20 to 80%	80 to 100%	80 to 100%	excellent herbicidal activity against all tested species	80 to 100%	80 to 100%	80 to 100%	20 to 80%	80 to 100%	80 to 100%	
O=C1c2ccc(F)cc2C(=O)N1c1cc2c(cc1F)OC1(CC1)C(=O)N2CC1CC1 [Example 26]	80 to 100%	80 to 100%	80 to 100%	80 to 100%	80 to 100%	80 to 100%	excellent herbicidal activity against all tested species	80 to 100%	80 to 100%	80 to 100%	80 to 100%	80 to 100%	80 to 100%	
COCCN1C(=O)C2(CC2)Oc2cc(F)c(N3C(=O)c4ccc(F)cc4C3=O)cc21 [Example 27]	80 to 100%	80 to 100%	80 to 100%	20 to 80%	80 to 100%	80 to 100%	excellent herbicidal activity against all tested species	80 to 100%	80 to 100%	80 to 100%	20 to 80%	80 to 100%	80 to 100%	
C#CCN1C(=O)C2(CC2)Oc2cc(F)c(N3C(=O)CCC3=O)cc21 [Example 28, 1-(7-Fluoro-3-oxo-4-(prop-2-yn-1-yl)-3,4-dihydrospiro[benzo[b][1,4]oxazine-2,1′-cyclopropan]-6-yl)pyrrolidine-2,5-dione]	80 to 100%	80 to 100%	80 to 100%	20 to 80%	80 to 100%	80 to 100%	excellent herbicidal activity against all tested species	80 to 100%	80 to 100%	80 to 100%	80 to 100%	80 to 100%	80 to 100%	
C#CCN1C(=O)C2(CC2)Oc2cc(F)c(N3C(=O)CC(C)CC3=O)cc21 [Example 29, 1-(7-Fluoro-3-oxo-4-(prop-2-yn-1-yl)-3,4-dihydrospiro[benzo[b][1,4]oxazine-2,1′-cyclopropan]-6-yl)-4-methylpiperidine-2,6-dione]	80 to 100%	80 to 100%	80 to 100%	< 20%	20 to 80%	20 to 80%	excellent herbicidal activity against all tested species	80 to 100%	80 to 100%	80 to 100%	80 to 100%	80 to 100%	80 to 100%	
O=C1c2ccc(F)cc2C(=O)N1c1cc2c(cc1F)OC1(CC1)C(=O)N2CC1CO1 (stereo not drawn) [Example 36, 5-Fluoro-2-(7-fluoro-4-(oxiran-2-ylmethyl)-3-oxo-3,4-dihydrospiro[benzo[b][1,4]oxazine-2,1′-cyclopropan]-6-yl)isoindoline-1,3-dione]	80 to 100%	80 to 100%	80 to 100%	< 20%	20 to 80%	20 to 80%		< 20%	20 to 80%	80 to 100%	< 20%	20 to 80%	20 to 80%	
C#CCN1C(=O)C2(CC2)Oc2cc(F)c(-n3c(=O)cc(C(F)(F)F)n(CC#C)c3=O)cc21 [Example 41]	80 to 100%	80 to 100%	80 to 100%	< 20%	20 to 80%	80 to 100%		80 to 100%	80 to 100%	80 to 100%	80 to 100%	80 to 100%	80 to 100%	
C#CCN1C(=O)C2(CC2)Oc2cc(F)c(-n3c(=O)cc(C(F)(F)F)n(CC(=O)OC)c3=O)cc21 [Example 42]	80 to 100%	80 to 100%	80 to 100%	20 to 80%	20 to 80%	80 to 100%		20 to 80%	80 to 100%	80 to 100%	< 20%	20 to 80%	20 to 80%	
